US4600705A, “Gonadoliberin derivatives containing a β-aspartyl group, a process for the preparation thereof and pharmaceutical preparations containing them” (Richter Gedeon Veyteszeti Gyar R.T., priority 1983, dated 1986)

Tests used:
[1] = system: cattle; test: pregnancy ratio of cattle, dosing simultaneously with insemination; assay type: in vivo; details: same dose (100 μg/dose)
[2] = system: female turkeys; test: brooding time of female turkeys; assay type: in vivo, turkey
[3] = system: blue and silver foxes; test: extra-seasonal rutting of blue and silver foxes; assay type: in vivo; details: single dose of 10 μg
[4] = system: sterlet and catfish mother fishes; test: spawning (roe deposition / ovulation) of sterlet and catfish mother fishes; assay type: in vivo; details: control group under the same conditions

Row | Substance | effect on the pregnancy ratio (in words) [1] | brooding time [2] | extra-seasonal rutting [3] | ovulation (in words) [4]
1 | native LH-RH: gonadoliberine, gonadotrop releasing hormone; native hormone used as comparator (QHWSYGLRPG; Gonadoliberin-1; UniProt P01148 24-33, looked up) | not efficacious | ineffective | inefficacious | 
2 | D-Phe^6, desGly^10 -LH-RH-ethylamide |  |  |  | no ovulation occurred
